Test results reported in patent US8361998B2, “Compounds and their use as IKACh blockers” (AstraZeneca AB, priority 2010, dated 2013).
Structures can show the parent of a compound that is named as a salt.

Target: T1, human ether-a-go-go-related gene (hERG)-encoded K+ channel (Homo sapiens, UniProt Q12809)
T1 construct: expressed in transfected cells; host or cells: Chinese hamster ovary K1 (CHO) cells
Assay: hERG inhibition, IonWorks HT, hERG-expressing CHO cells
Format: cell-based
Protocol: Inhibition of the human ether-a-go-go-related gene (hERG)-encoded K^+ channel was determined using hERG-expressing Chinese hamster ovary K1 (CHO) cells on a IonWorks™ HT assay platform as described by M. H. Bridgland-Taylor et al. J. of Pharmacological and Toxicological Methods (2006); 54:189-199.

T1 sequence (Q12809 whole entry): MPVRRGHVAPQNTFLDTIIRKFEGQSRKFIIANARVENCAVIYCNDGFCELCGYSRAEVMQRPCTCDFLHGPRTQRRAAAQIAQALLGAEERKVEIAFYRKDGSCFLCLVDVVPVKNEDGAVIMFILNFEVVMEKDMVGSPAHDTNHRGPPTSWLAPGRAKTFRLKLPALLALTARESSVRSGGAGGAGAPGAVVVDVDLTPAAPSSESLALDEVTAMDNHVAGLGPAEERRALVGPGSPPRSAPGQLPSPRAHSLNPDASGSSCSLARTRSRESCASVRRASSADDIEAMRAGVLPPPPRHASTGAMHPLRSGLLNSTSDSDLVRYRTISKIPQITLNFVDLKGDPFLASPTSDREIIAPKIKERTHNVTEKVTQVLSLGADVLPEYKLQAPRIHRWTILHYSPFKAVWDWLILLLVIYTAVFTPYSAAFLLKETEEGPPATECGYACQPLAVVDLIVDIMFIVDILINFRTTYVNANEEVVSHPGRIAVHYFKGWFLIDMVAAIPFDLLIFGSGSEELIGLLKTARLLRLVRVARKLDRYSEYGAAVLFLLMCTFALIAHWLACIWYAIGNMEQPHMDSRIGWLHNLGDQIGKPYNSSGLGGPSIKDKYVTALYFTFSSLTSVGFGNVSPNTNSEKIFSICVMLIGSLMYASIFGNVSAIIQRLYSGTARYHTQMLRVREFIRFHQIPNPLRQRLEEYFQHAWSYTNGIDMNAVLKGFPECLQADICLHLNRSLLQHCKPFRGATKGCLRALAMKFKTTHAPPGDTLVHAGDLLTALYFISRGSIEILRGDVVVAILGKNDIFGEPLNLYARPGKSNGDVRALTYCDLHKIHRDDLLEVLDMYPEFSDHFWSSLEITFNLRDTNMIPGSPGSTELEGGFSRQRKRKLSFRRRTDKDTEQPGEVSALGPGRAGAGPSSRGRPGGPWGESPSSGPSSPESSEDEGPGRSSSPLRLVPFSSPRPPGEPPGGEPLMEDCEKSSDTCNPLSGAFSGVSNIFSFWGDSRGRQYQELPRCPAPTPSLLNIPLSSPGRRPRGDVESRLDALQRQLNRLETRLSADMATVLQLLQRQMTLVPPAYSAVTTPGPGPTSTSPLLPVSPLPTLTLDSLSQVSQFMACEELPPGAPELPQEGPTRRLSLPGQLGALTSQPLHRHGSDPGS

Q: Which IC50 does the source give for `CC(C)C[C@@H](CN1CC(O)C1)N(C)C(=O)c1ccc(C#N)cc1F` [Example 38.6, 4-Cyano-2-fluoro-N-[(2S)-1-(3-hydroxyazetidin-1-yl)-4-methylpentan-2-yl]-N-methylbenzamide] here?
A: Its IC50 is > 33 µM.

Q: For `CC(C)[C@@H](CN1CC(O)C1)N(C)C(=O)c1ccc(Cl)cc1` [Example 6.2, (S)-4-Chloro-N-(1-(3-hydroxyazetidin-1-yl)-3-methylbutan-2-yl)-N-methylbenzamide], which IC50 is on record?
A: The IC50 was > 53 µM.

Q: `CCC[C@@H](CN1CC(O)C1)N(C)C(=O)c1ccc(F)cc1` [Example 8.6, (S)-4-Fluoro-N-(1-(3-hydroxyazetidin-1-yl)pentan-2-yl)-N-methylbenzamide] was tested. Which IC50 did it give?
A: Its IC50 is > 33 µM.

Q: For `CC(C)[C@@H](CN1CCC1)N(C)C(=O)c1ccc(Cl)cc1` [Example 5.1, (S)-N-(1-(Azetidin-1-yl)-3-methylbutan-2-yl)-4-chloro-N-methylbenzamide], which IC50 is on record?
A: Its IC50 is 76 µM.

Q: For `Cc1cc(C(=O)N(C)[C@H](CN2CCC2)C2CC2)ccc1F` [Example 4.1, (S)—N-(2-(Azetidin-1-yl)-1-cyclopropylethyl)-4-fluoro-N,3-dimethylbenzamide], which IC50 is on record?
A: Its IC50 is > 33 µM.

Q: Which IC50 does the source give for `CN(C(=O)c1ccc(C#N)cc1)[C@H](CN1CC(O)C1)C1CCC1` [Example 39.2, (S)-4-Cyano-N-(1-cyclobutyl-2-(3-hydroxyazetidin-1-yl)ethyl)-N-methylbenzamide] here?
A: The IC50 was 80 µM.

Q: How did the IC50 turn out when `Cc1cc(C(=O)N(C)[C@H](CN2CC(O)C2)C2CCC2)ccc1F` [Example 39.16, (S)—N-(1-Cyclobutyl-2-(3-hydroxyazetidin-1-yl)ethyl)-4-fluoro-N,3-dimethylbenzamide] was run?
A: Its IC50 is > 33 µM.

Q: For `CN(C(=O)c1ccc(Cl)cc1)[C@H](CN1CC(O)C1)C1CC1` [Example 7.2, (S)-4-Chloro-N-(1-cyclopropyl-2-(3-hydroxyazetidin-1-yl)ethyl)-N-methylbenzamide], which IC50 is on record?
A: Its IC50 is > 33 µM.

Q: For `CCC[C@@H](CN1CC(O)C1)N(C)C(=O)c1ccc(Cl)cc1` [Example 8.2, (S)-4-Chloro-N-(1-(3-hydroxyazetidin-1-yl)pentan-2-yl)-N-methyl-benzamide, hydrochloride], which IC50 is on record?
A: The IC50 was > 57 µM.

Q: For `Cc1cc(C(=O)N(C)[C@H](CN2CC(O)C2)C(C)C)ccc1F` [Example 6.1, (S)-4-Fluoro-N-(1-(3-hydroxyazetidin-1-yl)-3-methylbutan-2-yl)-N,3-dimethylbenzamide], which IC50 is on record?
A: Its IC50 is > 100 µM.

Q: Which IC50 does the source give for `Cc1cc(C(=O)N(C)[C@H](CN2CC(O)C2)C2CC2)ccc1F` [Example 7.1, (S)—N-(1-Cyclopropyl-2-(3-hydroxyazetidin-1-yl)ethyl)-4-fluoro-N,3-dimethylbenzamide] here?
A: Its IC50 is > 33 µM.

Q: How did the IC50 turn out when `CCC[C@@H](CN1CCC1)N(C)C(=O)c1ccc(Cl)cc1` [Example 1.2, (S)-N-(1-(Azetidin-1-yl)pentan-2-yl)-4-chloro-N-methylbenzamide] was run?
A: The IC50 was 20 µM.

Q: `CC[C@@H](CN1CC(O)C1)N(C)C(=O)c1ccc(Cl)cc1` [Example 39.12, (S)-4-Chloro-N-(1-(3-hydroxyazetidin-1-yl)butan-2-yl)-N-methylbenzamide] was tested. Which IC50 did it give?
A: Its IC50 is > 33 µM.

Q: With `CCC[C@@H](CN1CC(O)C1)N(C)C(=O)c1ccc(F)c(F)c1` [Example 8.1, (S)-3,4-Difluoro-N-(1-(3-hydroxyazetidin-1-yl)pentan-2-yl)-N-methylbenzamide] as the compound, how does the IC50 read?
A: Its IC50 is > 100 µM.

Q: For `CC[C@H](C)[C@@H](CN1CC(O)C1)N(C)C(=O)c1ccc(C#N)cc1F` [Example 29.7, 4-Cyano-2-fluoro-N-((2S,3S)-1-(3-hydroxyazetidin-1-yl)-3-methylpentan-2-yl)-N-methylbenzamide], which IC50 is on record?
A: The IC50 was > 33 µM.

Q: With `CCCC[C@@H](CN1CC(O)C1)N(C)C(=O)c1ccc(F)cc1` [Example 33.7, 4-Fluoro-N-[(2S)-1-(3-hydroxyazetidin-1-yl)hexan-2-yl]-N-methylbenzamide] as the compound, how does the IC50 read?
A: The IC50 was 79 µM.

Q: How did the IC50 turn out when `CC(C)C[C@@H](CN1CC(O)C1)N(C)C(=O)c1ccc(Cl)cc1` [Example 38.2, 4-Chloro-N-[(2S)-1-(3-hydroxyazetidin-1-yl)-4-methylpentan-2-yl]-N-methylbenzamide] was run?
A: The IC50 was > 33 µM.

Q: How did the IC50 turn out when `CN(C(=O)c1ccc(Cl)cc1)[C@H](CN1CC(O)C1)C1CCC1` [Example 39.14, (S)-4-Chloro-N-(1-cyclobutyl-2-(3-hydroxyazetidin-1-yl)ethyl)-N-methylbenzamide] was run?
A: The IC50 was > 33 µM.

Q: With `CN(C(=O)c1ccc(Br)cc1)[C@H](CN1CC(O)C1)C1CC1` [Example 4.4, (S)-4-Bromo-N-(1-cyclopropyl-2-(3-hydroxyazetidin-1-yl)ethyl)-N-methylbenzamide] as the compound, how does the IC50 read?
A: Its IC50 is > 33 µM.

Q: How did the IC50 turn out when `CCC[C@@H](CN1CCC1)N(C)C(=O)c1ccc(F)c(C)c1` [Example 1.4, (S)-N-(1-(Azetidin-1-yl)pentan-2-yl)-4-fluoro-N,3-dimethyl-benzamide] was run?
A: The IC50 was > 33 µM.

Q: `Cc1cccc(C(=O)N(C)[C@H](CN2CCCC2)C(C)C)c1` [Example 12.2, (S)-1-(2-(N,3-Dimethylbenzamido)-3-methylbutyl)pyrrolidinium 2,3-dihydroxysuccinate] was tested. Which IC50 did it give?
A: Its IC50 is > 33 µM.

Q: For `CC(C)[C@@H](CN1CCCC1)N(C)C(=O)c1ccc(F)c(Cl)c1` [Example 16.55, (S)-3-Chloro-4-fluoro-N-methyl-N-(3-methyl-1-(pyrrolidin-1-yl)butan-2-yl)benzamide], which IC50 is on record?
A: Its IC50 is > 31 µM.

Q: How did the IC50 turn out when `CC(C)[C@@H](CN1CCCC1)N(C)C(=O)c1ccc(Br)cc1` [Example 19, (S)-1-(2-(4-bromo-N-methylbenzamido)-3-methylbutyl)pyrrolidinium 3-carboxy-2,3-dihydroxypropanoate] was run?
A: Its IC50 is 17 µM.

Q: Which IC50 does the source give for `CN(C(=O)c1ccc(F)c(Cl)c1)[C@H](CN1CC(O)C1)C1CC1` [Example 7.3, (S)-3-Chloro-N-(1-cyclopropyl-2-(3-hydroxyazetidin-1-yl)ethyl)-4-fluoro-N-methylbenzamide] here?
A: The IC50 was > 33 µM.

Q: Which IC50 does the source give for `CC(C)[C@@H](CN1CCCC1)N(C)C(=O)c1ccc(F)cc1Cl` [Example 1.17, (S)-2-Chloro-4-fluoro-N-methyl-N-(3-methyl-1-(pyrrolidin-1-yl)butan-2-yl)benzamide] here?
A: The IC50 was > 100 µM.

Q: Which IC50 does the source give for `CC(C)[C@@H](CN1CCC1)N(C)C(=O)c1ccc(Br)cc1.O=C(O)CCC(=O)O` [Example 5.2] here?
A: Its IC50 is 34 µM.

Q: How did the IC50 turn out when `CC(C)[C@@H](CN1CC[C@H](O)C1)N(C)C(=O)c1ccc(Cl)cc1` [Example 10.2, 4-Chloro-N-((S)-1-((S)-3-hydroxypyrrolidin-1-yl)-3-methylbutan-2-yl)-N-methylbenzamide hemi tartrate] was run?
A: Its IC50 is > 33 µM.

Q: How did the IC50 turn out when `Cc1cc(C(=O)N(C)[C@H](CN2CCCC2)C(C)C)ccc1F` [Example 12.1, (S)-4-Fluoro-N,3-dimethyl-N-(3-methyl-1-(pyrrolidin-1-yl)butan-2-yl)benzamide-dihydroxysuccinate] was run?
A: Its IC50 is > 100 µM.

Q: With `CC(C)[C@@H](CN1CCCC1)N(C)C(=O)c1ccc(Cl)cc1` [Example 18, (S)-1-(2-(4-Chloro-N-methylbenzamido)-3-methylbutyl)pyrrolidinium chloride] as the compound, how does the IC50 read?
A: Its IC50 is > 30 µM.

Q: Which IC50 does the source give for `CCCC[C@@H](CN1CC(O)C1)N(C)C(=O)c1ccc(C#N)cc1` [Example 33.4, 4-Cyano-N-[(2S)-1-(3-hydroxyazetidin-1-yl)hexan-2-yl]-N-methylbenzamide] here?
A: Its IC50 is 18 µM.

Q: How did the IC50 turn out when `CC(C)C[C@@H](CN1CC(O)C1)N(C)C(=O)c1ccc(F)c(F)c1` [Example 38.1, 3,4-Difluoro-N-[(2S)-1-(3-hydroxyazetidin-1-yl)-4-methylpentan-2-yl]-N-methylbenzamide] was run?
A: Its IC50 is > 33 µM.
